Some results are limits rather than exact numbers.

The test system of assay [1] is JAK2-pSTAT5 (GM-CSF induced pSTAT5). The assay can be described thus: GM-CSF induced pSTAT5 in human PBMC. The class given is cell-based. The following applies: Homo sapiens, PBMC, 20 min, 5 ng/mL GM-CSF. Put shortly:
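Thawed human PBMC, 200,000 per well in serum-containing medium, were preincubated 1 hr at 37 C with compound in 0.1% DMSO. GM-CSF at 5 ng/mL final was added for 20 minutes, then pSTAT5 and total STAT5 in lysates were measured by MSD immunoassay.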

In assay [2] the test system is Tyk2-pSTAT4 (IL-12 induced pSTAT4). The assay can be described thus: IL-12 induced pSTAT4 in human PBMC. The class given is cell-based. The following applies: 1.7 ng/mL IL-12, 30 minutes. Summed up: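 pSTAT4 and total STAT4 quantified by MSD in cell lysates after 30 minutes of 1.7 ng/mL IL-12 stimulation. Beforehand, compound (0.1% DMSO final) sat 1 hr at 37 C on 200,000 thawed buffy-coat PBMC per well in serum-containing medium.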

In another assay the target is JAK2 (Homo sapiens (Human), UniProt O60674). The experiment in a line: JAK2 radioactive kinase assay. The class given is biochemical. As to conditions: ATP 10 μM. Summed up:
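Radiometric assay in Hepes pH 7.5, MgCl2, EGTA, Brij35, BSA, DTT, 1% DMSO, with 10 μM [33P]ATP, 120 min at room temp; P81 paper capture and counting. […]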

A further assay concerns the target TYK2 (Homo sapiens (Human), UniProt P29597). The experiment in a line: Tyk2 radioactive kinase assay. The class given is biochemical. The following applies: ATP 10 μM. Put shortly: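 Recombinant human TYK2 (Invitrogen) was mixed with 20 μM peptide substrate in a buffer of 20 mM Hepes pH 7.5, 10 mM MgCl2, 1 mM EGTA, 0.02% Brij35, 0.02 mg/mL BSA, 0.1 mM […], 2 mM DTT and 1% DMSO, and compounds in DMSO were added. Adding ^33P-ATP (10 μM ATP) started the reaction, which ran 120 min at room temperature. Mixtures were then spotted onto P81 ion-exchange paper, washed thoroughly in 0.75% phosphoric acid, and counted for radioactivity.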

Sequence of JAK2 (O60674 whole entry): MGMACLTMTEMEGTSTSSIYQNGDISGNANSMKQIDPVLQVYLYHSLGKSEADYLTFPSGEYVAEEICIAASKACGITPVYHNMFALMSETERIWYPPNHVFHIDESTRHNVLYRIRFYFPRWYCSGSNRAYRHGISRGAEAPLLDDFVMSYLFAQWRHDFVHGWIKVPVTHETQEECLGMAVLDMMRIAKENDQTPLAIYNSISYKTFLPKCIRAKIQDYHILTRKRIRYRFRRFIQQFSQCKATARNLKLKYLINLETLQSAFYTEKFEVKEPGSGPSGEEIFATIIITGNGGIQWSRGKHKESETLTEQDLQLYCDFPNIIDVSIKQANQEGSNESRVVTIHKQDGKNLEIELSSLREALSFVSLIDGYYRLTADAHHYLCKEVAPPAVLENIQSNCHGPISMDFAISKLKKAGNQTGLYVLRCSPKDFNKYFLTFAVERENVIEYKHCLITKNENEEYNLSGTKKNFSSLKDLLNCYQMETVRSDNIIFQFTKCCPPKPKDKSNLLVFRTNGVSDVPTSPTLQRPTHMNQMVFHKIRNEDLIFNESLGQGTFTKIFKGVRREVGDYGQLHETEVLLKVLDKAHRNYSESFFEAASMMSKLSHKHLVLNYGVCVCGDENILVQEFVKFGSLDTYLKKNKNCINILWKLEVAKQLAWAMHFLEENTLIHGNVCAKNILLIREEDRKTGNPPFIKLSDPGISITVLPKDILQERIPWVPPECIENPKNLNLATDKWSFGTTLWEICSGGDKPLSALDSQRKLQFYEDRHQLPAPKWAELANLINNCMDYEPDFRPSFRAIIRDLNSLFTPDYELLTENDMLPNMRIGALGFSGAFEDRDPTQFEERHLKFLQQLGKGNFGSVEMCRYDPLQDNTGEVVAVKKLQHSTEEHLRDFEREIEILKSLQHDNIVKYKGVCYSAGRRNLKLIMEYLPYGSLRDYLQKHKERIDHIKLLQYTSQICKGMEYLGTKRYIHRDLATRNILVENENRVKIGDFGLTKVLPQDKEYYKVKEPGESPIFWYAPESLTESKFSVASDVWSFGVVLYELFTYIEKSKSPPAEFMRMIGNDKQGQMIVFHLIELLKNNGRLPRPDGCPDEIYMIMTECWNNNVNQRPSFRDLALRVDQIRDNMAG
Sequence of TYK2 (P29597 whole entry): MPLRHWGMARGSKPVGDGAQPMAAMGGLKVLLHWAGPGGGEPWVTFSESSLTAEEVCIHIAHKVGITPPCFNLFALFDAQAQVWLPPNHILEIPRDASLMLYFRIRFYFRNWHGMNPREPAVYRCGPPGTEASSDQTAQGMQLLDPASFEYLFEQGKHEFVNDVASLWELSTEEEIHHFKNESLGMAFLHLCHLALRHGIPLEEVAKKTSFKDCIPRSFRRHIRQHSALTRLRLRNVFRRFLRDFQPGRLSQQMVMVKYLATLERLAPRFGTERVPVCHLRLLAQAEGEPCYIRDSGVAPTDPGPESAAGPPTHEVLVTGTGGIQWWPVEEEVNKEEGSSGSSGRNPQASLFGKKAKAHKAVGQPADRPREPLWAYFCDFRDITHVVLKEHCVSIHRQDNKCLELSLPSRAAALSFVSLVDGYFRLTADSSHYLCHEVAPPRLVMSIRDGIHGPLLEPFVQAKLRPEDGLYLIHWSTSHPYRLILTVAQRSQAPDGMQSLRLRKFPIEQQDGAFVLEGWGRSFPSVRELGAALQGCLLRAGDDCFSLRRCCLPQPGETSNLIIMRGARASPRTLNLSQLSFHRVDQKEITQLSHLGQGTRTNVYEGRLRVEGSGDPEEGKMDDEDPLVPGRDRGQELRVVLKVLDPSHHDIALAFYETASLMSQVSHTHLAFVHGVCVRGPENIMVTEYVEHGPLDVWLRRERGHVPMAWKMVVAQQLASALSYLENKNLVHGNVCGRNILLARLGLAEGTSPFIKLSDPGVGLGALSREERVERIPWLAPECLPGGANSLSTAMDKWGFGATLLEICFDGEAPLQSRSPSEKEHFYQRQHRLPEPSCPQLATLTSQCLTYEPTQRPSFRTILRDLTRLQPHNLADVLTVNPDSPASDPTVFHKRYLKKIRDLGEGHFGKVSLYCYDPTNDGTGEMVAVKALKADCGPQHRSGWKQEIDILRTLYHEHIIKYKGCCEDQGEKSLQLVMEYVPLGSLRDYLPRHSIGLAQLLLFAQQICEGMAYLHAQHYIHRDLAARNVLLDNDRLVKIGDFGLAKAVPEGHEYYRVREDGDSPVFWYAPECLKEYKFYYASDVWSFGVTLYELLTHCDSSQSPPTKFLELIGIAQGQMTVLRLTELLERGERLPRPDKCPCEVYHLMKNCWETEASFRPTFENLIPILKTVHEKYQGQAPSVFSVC

Regarding `CS(=O)(=O)NC1CCN(c2ccn(-c3cc(-c4c(F)cccc4C#N)nc4c3C(=O)NC4)n2)C1` (stereo not shown) [I-120, N-(1-(1-(2-(2-cyano-6-fluorophenyl)-5-oxo-6,7-dihydro-5H-pyrrolo[3,4-b]pyridin-4-yl)-1H-pyrazol-3-yl)pyrrolidin-3-yl)methanesulfonamide], the concentration for a half-maximal effect (EC50) in assay [1] lay within 100 to 2000 nM; in assay [2] (Homo sapiens, PBMC, 0.5 h), 100 to 2000 nM. For the same molecule, the Ki on JAK2 and on TYK2 was 0.1 to 10 nM throughout.

With `N#Cc1cccc(F)c1-c1cc(-n2ccc(N3CCOCC(O)C3)n2)c2c(n1)CNC2=O` (stereo not shown) [I-121, 3-fluoro-2-(4-(3-(6-hydroxy-1,4-oxazepan-4-yl)-1H-pyrazol-1-yl)-5-oxo-6,7-dihydro-5H-pyrrolo[3,4-b]pyridin-2-yl)benzonitrile], the concentration giving a half-maximal response (EC50) is more than 2000 nM in assay [1] and 30 to 100 nM in assay [2] (Homo sapiens, PBMC, 0.5 h). In addition, the Ki is 10 to 100 nM at JAK2 and 0.1 to 10 nM at TYK2.

For the molecule `N#Cc1cccc(F)c1-c1cc(-n2ccc(N3CCCC(C(N)=O)C3)n2)c2c(n1)CNC2=O` (stereo not shown) [I-122, 1-(1-(2-(2-cyano-6-fluorophenyl)-5-oxo-6,7-dihydro-5H-pyrrolo[3,4-b]pyridin-4-yl)-1H-pyrazol-3-yl)piperidine-3-carboxamide], the EC50 in assay [1] lay in the range of 100 to 2000 nM; in assay [2] (Homo sapiens, PBMC, 0.5 h) it was 100 to 2000 nM. In addition, the Ki fell in the range of 10 to 100 nM on JAK2 and 0.1 to 10 nM at TYK2.

In the case of `CC(=O)NC1CCCN(c2ccn(-c3cc(-c4c(F)cccc4C#N)nc4c3C(=O)NC4)n2)C1` (stereo not shown) [I-123, N-(1-(1-(2-(2-cyano-6-fluorophenyl)-5-oxo-6,7-dihydro-5H-pyrrolo[3,4-b]pyridin-4-yl)-1H-pyrazol-3-yl)piperidin-3-yl)acetamide], the EC50 in assay [1] was more than 2000 nM; in assay [2] (Homo sapiens, PBMC, 0.5 h), 100 to 2000 nM. Besides, the Ki at JAK2 and on TYK2 was 0.1 to 10 nM throughout.

For `N#Cc1cccc(F)c1-c1cc(-n2cc3c(n2)CNC3)c2c(n1)CNC2=O` [I-124, 2-(4-(5,6-dihydropyrrolo[3,4-c]pyrazol-2 (4H)-yl)-5-oxo-6,7-dihydro-5H-pyrrolo[3,4-b]pyridin-2-yl)-3-fluorobenzonitrile], the EC50 in assay [1] was more than 2000 nM; in assay [2] (Homo sapiens, PBMC, 0.5 h) it was more than 2000 nM. The Ki was in the range of 100 to 1000 nM on JAK2 and 10 to 100 nM at TYK2.

As for `N#Cc1cccc(F)c1-c1cc(-n2ccc(N3CCC[C@@H](C(N)=O)C3)n2)c2c(n1)CNC2=O` [I-125, (R)-1-(1-(2-(2-cyano-6-fluorophenyl)-5-oxo-6,7-dihydro-5H-pyrrolo[3,4-b]pyridin-4-yl)-1H-pyrazol-3-yl)piperidine-3-carboxamide], the 50% effective concentration (EC50) in assay [1] was 100 to 2000 nM; in assay [2] (Homo sapiens, PBMC, 0.5 h), 100 to 2000 nM. In addition, the Ki on JAK2 lay in the range of 10 to 100 nM; on TYK2, 0.1 to 10 nM.

Turning to `N#Cc1cccc(F)c1-c1cc(-n2ccc(N3CCC[C@H](C(N)=O)C3)n2)c2c(n1)CNC2=O` [I-126, (S)-1-(1-(2-(2-cyano-6-fluorophenyl)-5-oxo-6,7-dihydro-5H-pyrrolo[3,4-b]pyridin-4-yl)-1H-pyrazol-3-yl)piperidine-3-carboxamide], the EC50 in assay [1] lay in the range of 100 to 2000 nM; in assay [2] (Homo sapiens, PBMC, 0.5 h) it was 100 to 2000 nM. Further, the Ki on JAK2 was in the range of 10 to 100 nM; at TYK2 it was 0.1 to 10 nM.

In the case of `CC(=O)N[C@@H]1CCCN(c2ccn(-c3cc(-c4c(F)cccc4C#N)nc4c3C(=O)NC4)n2)C1` [I-129, (R)-N-(1-(1-(2-(2-cyano-6-fluorophenyl)-5-oxo-6,7-dihydro-5H-pyrrolo[3,4-b]pyridin-4-yl)-1H-pyrazol-3-yl)piperidin-3-yl)acetamide], the concentration for a half-maximal effect (EC50) in assay [1] is more than 2000 nM; in assay [2] (Homo sapiens, PBMC, 0.5 h), 100 to 2000 nM. Moreover, the values for the inhibition constant Ki at JAK2 and on TYK2 were 10 to 100 nM and 0.1 to 10 nM, respectively.

Turning to `CC(=O)N[C@H]1CCCN(c2ccn(-c3cc(-c4c(F)cccc4C#N)nc4c3C(=O)NC4)n2)C1` [I-130, (S)-N-(1-(1-(2-(2-cyano-6-fluorophenyl)-5-oxo-6,7-dihydro-5H-pyrrolo[3,4-b]pyridin-4-yl)-1H-pyrazol-3-yl)piperidin-3-yl)acetamide], the concentration giving a half-maximal response (EC50) in assay [1] fell in the range of 100 to 2000 nM; in assay [2] (Homo sapiens, PBMC, 0.5 h), 100 to 2000 nM. The figures for the inhibition constant Ki at JAK2 and on TYK2 were 10 to 100 nM and 0.1 to 10 nM, respectively.

Take `N#Cc1cccc(F)c1-c1cc(-n2ccc(N3CCOC[C@@H](O)C3)n2)c2c(n1)CNC2=O` [I-131, (S)-3-fluoro-2-(4-(3-(6-hydroxy-1,4-oxazepan-4-yl)-1H-pyrazol-1-yl)-5-oxo-6,7-dihydro-5H-pyrrolo[3,4-b]pyridin-2-yl)benzonitrile]: the concentration giving a half-maximal response (EC50) in assay [1] was more than 2000 nM; in assay [2] (Homo sapiens, PBMC, 0.5 h) it was 30 to 100 nM. Moreover, the Ki fell in the range of 10 to 100 nM at JAK2 and 0.1 to 10 nM on TYK2.

In the case of `CS(=O)(=O)N[C@H]1CCN(c2ccn(-c3cc(-c4c(F)cccc4C#N)nc4c3C(=O)NC4)n2)C1` [I-135, (S)-N-(1-(1-(2-(2-cyano-6-fluorophenyl)-5-oxo-6,7-dihydro-5H-pyrrolo[3,4-b]pyridin-4-yl)-1H-pyrazol-3-yl)pyrrolidin-3-yl)methanesulfonamide], the EC50 in assay [1] is more than 2000 nM; in assay [2] (Homo sapiens, PBMC, 0.5 h) it was 100 to 2000 nM. Besides, the Ki at JAK2 and on TYK2 was 0.1 to 10 nM throughout.

Take `N#Cc1cccc(F)c1-c1cc(-n2ccc(N3CC[C@H](O)[C@H](O)C3)n2)c2c(n1)CNC2=O` [I-136, 2-(4-(3-((3R,4S)-3,4-dihydroxypiperidin-1-yl)-1H-pyrazol-1-yl)-5-oxo-6,7-dihydro-5H-pyrrolo[3,4-b]pyridin-2-yl)-3-fluorobenzonitrile]: the EC50 in assay [1] was more than 2000 nM; in assay [2] (Homo sapiens, PBMC, 0.5 h), 30 to 100 nM. The inhibition constant Ki on JAK2 lay in the range of 0.1 to 10 nM; on TYK2 it was 0.009 to 0.1 nM.

For `N#Cc1cccc(F)c1-c1cc(-n2ccc(N3CC[C@@H](O)[C@@H](O)C3)n2)c2c(n1)CNC2=O` [I-137, 2-(4-(3-((3S,4R)-3,4-dihydroxypiperidin-1-yl)-1H-pyrazol-1-yl)-5-oxo-6,7-dihydro-5H-pyrrolo[3,4-b]pyridin-2-yl)-3-fluorobenzonitrile], the EC50 was more than 2000 nM in assay [1] and 100 to 2000 nM in assay [2]. The Ki at JAK2 and on TYK2 was 0.1 to 10 nM throughout.

For the molecule `N#Cc1cccc(F)c1-c1cc(-n2ccc(N3CCCC3=O)n2)c2c(n1)CNC2=O` [I-139, 3-fluoro-2-(5-oxo-4-(3-(2-oxopyrrolidin-1-yl)-1H-pyrazol-1-yl)-6,7-dihydro-5H-pyrrolo[3,4-b]pyridin-2-yl)benzonitrile], the EC50 in assay [1] was in the range of 100 to 2000 nM; in assay [2] (Homo sapiens, PBMC, 0.5 h) it was 100 to 2000 nM. Besides, the inhibition constant Ki on JAK2 was in the range of 10 to 100 nM; on TYK2 it was 0.1 to 10 nM.

`N#Cc1cccc(F)c1-c1cc(-n2ccc(N3CCNC(=O)CC3)n2)c2c(n1)CNC2=O` [I-141, 3-fluoro-2-(5-oxo-4-(3-(5-oxo-1,4-diazepan-1-yl)-1H-pyrazol-1-yl)-6,7-dihydro-5H-pyrrolo[3,4-b]pyridin-2-yl)benzonitrile]: the EC50 in assay [1] was 100 to 2000 nM; in assay [2] (Homo sapiens, PBMC, 0.5 h) it was 100 to 2000 nM. Moreover, the values for the inhibitory constant (Ki) at JAK2 and at TYK2 were 0.1 to 10 nM and 0.009 to 0.1 nM, respectively.

Turning to `[2H]C1([2H])C[C@H](O)C([2H])([2H])N1c1ccn(-c2cc(-c3c(F)cccc3C#N)nc3c2C(=O)NC3)n1` [I-142, (S)-3-fluoro-2-(4-(3-(3-hydroxypyrrolidin-1-yl-2,2,5,5-d4)-1H-pyrazol-1-yl)-5-oxo-6,7-dihydro-5H-pyrrolo[3,4-b]pyridin-2-yl)benzonitrile], the EC50 lay within 100 to 2000 nM in assay [1] and 30 to 100 nM in assay [2] (Homo sapiens, PBMC, 0.5 h). Further, the Ki was 0.1 to 10 nM at JAK2 and 0.009 to 0.1 nM on TYK2.

Take `CN1CCN(C2CCCN(c3ccn(-c4cc(-c5c(F)cccc5C#N)nc5c4C(=O)NC5)n3)C2)CC1` (stereo not shown) [I-147, 3-fluoro-2-(4-(3-(3-(4-methylpiperazin-1-yl)piperidin-1-yl)-1H-pyrazol-1-yl)-5-oxo-6,7-dihydro-5H-pyrrolo[3,4-b]pyridin-2-yl)benzonitrile]: the EC50 was in the range of 100 to 2000 nM in assay [1] and 100 to 2000 nM in assay [2] (Homo sapiens, PBMC, 0.5 h). Moreover, the values for the Ki at JAK2 and at TYK2 were 10 to 100 nM and 0.1 to 10 nM, respectively.

As for `N#Cc1cccc(F)c1-c1cc(-n2ccc(N3CC[C@H](O)C3=O)n2)c2c(n1)CNC2=O` [I-148, (S)-3-fluoro-2-(4-(3-(3-hydroxy-2-oxopyrrolidin-1-yl)-1H-pyrazol-1-yl)-5-oxo-6,7-dihydro-5H-pyrrolo[3,4-b]pyridin-2-yl)benzonitrile], the EC50 in assay [1] is more than 2000 nM; in assay [2] (Homo sapiens, PBMC, 0.5 h) it was more than 2000 nM. Moreover, the results for the Ki on JAK2 and at TYK2 were not below 1000 nM and 10 to 100 nM, respectively.

Consider `N#Cc1cccc(F)c1-c1cc(-n2ccc(N3CCCC(N4CCOCC4)C3)n2)c2c(n1)CNC2=O` (stereo not shown) [I-149, 3-fluoro-2-(4-(3-(3-morpholinopiperidin-1-yl)-1H-pyrazol-1-yl)-5-oxo-6,7-dihydro-5H-pyrrolo[3,4-b]pyridin-2-yl)benzonitrile], for which the EC50 was in the range of 100 to 2000 nM in assay [1] and 100 to 2000 nM in assay [2] (Homo sapiens, PBMC, 0.5 h). Besides, the inhibition constant Ki at JAK2 lay in the range of 0.1 to 10 nM; on TYK2, 0.009 to 0.1 nM.
